{"source": "patent US10073082B2", "about": "“Proteasome inhibition assay and methods of use” (UNIVERSITY HEALTH NETWORK, priority 2013, dated 2018)", "key": {"[1]": {"tested_on": "IκB in granulocytes", "assay": "Flow cytometry assay, whole blood pretreated with effector: IκB levels in granulocytes after LPS", "type": "cell-based, human", "conditions": "whole blood pretreated with inhibitor, then LPS; 60 minutes time period", "description": "(§1) The assay generally comprises treating whole blood with an IκB degradation agonist and/or proteasome effector, fixing the blood cells, permeabilizing the fixed bloods cells, treating the fixed and permeabilized cells with an alcohol treatment to unmask intracellular phosphor-epitopes, and then staining the treated cells with antibodies for flow cytometry analysis.\n(§2) Whole blood samples from normal human donors were collected. 100 μL aliquots of the whole blood were inserted into the bottom of 12×75 mm tubes. In order to reduce the potential for contamination of the sample with unfixed cells, blood was removed from the side of the tubes with a cotton swab. […]\n(§3) Following the above wash steps, the fixed and permeabilized cells were resuspended in 100 μL of cold Wash Buffer comprising antibodies to specific intracellular antigens (e.g., signaling targets including P-ERK, P-Akt, P-p38, P-SAPK, P-S6, and antibodies to IκB). […] The supernatant was aspirated and the cell pellet was resuspended in 350 μL of Resuspension Buffer (PerFix-P® kit) and analyzed on a flow cytometer (GALLIOS™) using a protocol with defined population gates and series of dual parameter histograms. A CD45-KO vs. SS dual parameter histogram was collected and a gate around the leukocyte population based on the CD45+ fluorescence and SS characteristics was drawn to exclude debris (CD45 negative events). […]"}, "[2]": {"tested_on": "IκB in peripheral blood lymphocytes", "assay": "Flow cytometry assay, whole blood pretreated with effector: LPS induced degradation of IκB in lymphocytes", "type": "cell-based, human", "conditions": "whole blood pretreated with inhibitor, then LPS", "description": "as §1, §2, §3"}, "[3]": {"tested_on": "IκB in peripheral blood monocytes", "assay": "TNFα induced degradation of IκB in monocytes from pretreated whole blood", "type": "cell-based, human", "conditions": "TNFα activated monocytes, whole blood pretreated with inhibitor", "description": "as §2, with “swab. 1-2 μL of a proteasome effector was added to a first portion of the tubes and these tubes were incubated for 2 hours at 37° C. in a water bath. In this example, the proteasome effector was Bortezomib or MG-132, both proteasome inhibitors.” for “swab.”\n(§4) Following the above wash steps, the fixed and permeabilized cells were resuspended in 100 μL of cold Wash Buffer comprising antibodies to specific intracellular antigens (e.g., signaling targets including P-ERK, P-Akt, P-p38, P-SAPK, P-S6, and antibodies to IκB). […] The supernatant was aspirated and the cell pellet was resuspended in 350 μL of Resuspension Buffer (PerFix-P® kit) and analyzed on a flow cytometer (GALLIOS™) using a protocol with defined population gates and series of dual parameter histograms. A CD45-KO vs. SS dual parameter histogram was collected and a gate around the leukocyte population based on the CD45+ fluorescence and SS characteristics was drawn to exclude debris (CD45 negative events). […] The collected flow cytometric data was analyzed using KALUZA™ software. […]"}, "[4]": {"tested_on": "P-ERK in peripheral blood monocytes", "assay": "TNFα induced ERK activation in monocytes from pretreated whole blood", "type": "cell-based, human", "conditions": "TNFα activated monocytes, whole blood pretreated with inhibitor", "description": "as §2, with “swab. 1-2 μL of a proteasome effector was added to a first portion of the tubes and these tubes were incubated for 2 hours at 37° C. in a water bath. In this example, the proteasome effector was Bortezomib or MG-132, both proteasome inhibitors.” for “swab.”\nas §4"}, "[5]": {"tested_on": "IκB in peripheral blood monocytes", "assay": "Flow cytometry assay, whole blood pretreated with effector: LPS induced degradation of IκB in monocytes", "type": "cell-based, human", "conditions": "monocytes, whole blood pretreated with inhibitor 2 hours at 37° C., then LPS; within 10 minutes", "description": "Whole blood samples from normal human donors were collected. 100 μL aliquots of the whole blood were inserted into the bottom of 12×75 mm tubes. In order to reduce the potential for contamination of the sample with unfixed cells, blood was removed from the side of the tubes with a cotton swab. 1-2 μL of a proteasome effector was added to a first portion of the tubes and these tubes were incubated for 2 hours at 37° C. in a water bath. In this example, the proteasome effector was Bortezomib or MG-132, both proteasome inhibitors. Following pretreatment with the proteasome effector, 2 μL of 50 mg/mL stock solution (100 ng) of an IκB degradation agonist was added to the tubes and the tubes were incubated from 1 minute to 60 minutes at 37° C. in a water bath. In this example, the agonist was lipopolysaccharide (LPS). A second portion of the tubes were treated with the IκB degradation agonist and no proteasome effector. […]\nFollowing the above wash steps, the fixed and permeabilized cells were resuspended in 100 μL of cold Wash Buffer comprising antibodies to specific intracellular antigens (e.g., signaling targets including P-ERK, P-Akt, P-p38, P-SAPK, P-S6, and antibodies to IκB). […] The supernatant was aspirated and the cell pellet was resuspended in 350 μL of Resuspension Buffer (PerFix-P® kit) and analyzed on a flow cytometer (GALLIOS™) using a protocol with defined population gates and series of dual parameter histograms. A CD45-KO vs. SS dual parameter histogram was collected and a gate around the leukocyte population based on the CD45+ fluorescence and SS characteristics was drawn to exclude debris (CD45 negative events). […] The collected flow cytometric data was analyzed using KALUZA™ software.\nPhosphorylation of signaling pathways activated by LPS, including ERK, Akt (activated by PI3 Kinase), and the ribosomal S6 protein (a marker of protein synthesis) were also monitored together with the degradation of IκB. […] The degradation of IκB in cells pretreated with MG-132 or GDC-0941 was monitored by flow cytometry as described in Example 1. […]"}, "[6]": {"tested_on": "proteasome activity (IκB degradation, ERK activation) in monocytes", "assay": "Proteasome inhibition in blood monocytes of Multiple Myeloma patients receiving Bortezomib therapy (LPS stimulation ex vivo)", "design": "species or system human", "description": "(§5) Whole blood samples from eight Multiple Myeloma (MM) patients were obtained. For three of the MM patients (MM003-MM005), whole blood samples were tested with or without LPS activation (10 min stimulation at 37° C.) and the samples were processed and analyzed for IκB degradation and signaling pathway activation as described in Example 1.\n(§6) Blood samples from the 5 remaining MM patients samples were pretreated with Bortezomib or RP-171 (Carfilzomib, a covalent proteasome inhibitor) and then tested and analyzed with or without LPS activation (10 min LPS at 37 37° C.) for IκB degradation and signaling pathway activation as described in Example 1. […] All of the MM patients tested were receiving Bortezomib therapy."}, "[7]": {"tested_on": "peripheral blood lymphocytes", "assay": "IκB degradation agonists in whole blood: IκB degradation and signaling pathway activation in lymphocytes", "type": "cell-based, human", "conditions": "for Pathways Activated: Target Cell Population: Lymphocytes (subpopulation)", "description": "(§7) Whole blood samples from normal human donors were collected. 100 μL aliquots of the whole blood were inserted into the bottom of 12×75 mm tubes. In order to reduce the potential for contamination of the sample with unfixed cells, blood was removed from the side of the tubes with a cotton swab. 1-2 μL of a proteasome effector was added to a first portion of the tubes and these tubes were incubated for 2 hours at 37° C. in a water bath. In this example, the proteasome effector was Bortezomib or MG-132, both proteasome inhibitors. Following pretreatment with the proteasome effector, 2 μL of […] stock solution (100 ng) of an IκB degradation agonist was added to the tubes and the tubes were incubated from 1 minute to 60 minutes at 37° C. in a water bath. In this example, the agonist was lipopolysaccharide (LPS). A second portion of the tubes were treated with the IκB degradation agonist and no proteasome effector. 2 μL of an IκB degradation agonist was added to these tubes and the tubes were incubated from 1 minute to 60 minutes as described above. For control tubes, 2 μL of phosphate buffered saline (PBS) was added to the tubes and the tubes were incubated as described above.\n(§8) Following incubation, the cells were fixed and permeabilized with a PerFix-P® kit (Beckman Coulter, Inc., Brea. Calif.) according to the manufacturer's instructions. The fixed and permeabilized cells were then washed with 2 mL of Wash Buffer (PBS (w/o Ca++/Mg++) with 2% fetal bovine serum (FBS), sterile filtered (0.22 μm filter)) in the tubes and centrifuged at 500×g for 4 minutes. The cell pellet was resuspended in 2 mL of cold (4° C.) Wash Buffer, centrifuged at 500×g for 4 minutes, and the supernatant was aspirated.\n(§9) Following the above wash steps, the fixed and permeabilized cells were resuspended in 100 μL of cold Wash Buffer comprising antibodies to specific intracellular antigens (e.g., signaling targets including P-ERK, P-Akt, P-p38, P-SAPK, P-S6, and antibodies to IκB). The antibodies were labeled with different fluorochromes (e.g. fluorophores) to facilitate their-individual measurement of the intracellular antigens. In order to target specific cell populations in the assay, antibodies capable of differentiating cell populations within the blood sample were also included in some of the tubes. For example, anti-CD14 antibodies were included to specifically label monocytes, anti-CD3 antibodies or anti-CD19 antibodies were included to specifically label T or B-cells respectively, and/or anti-CD38/CD138 antibodies were included to specifically label plasma cells. The cells were incubated with the antibodies for 30 minutes at room temperature and then the cells were washed in 2 mL of cold Wash Buffer and centrifuged as described above. The supernatant was aspirated and the cell pellet was resuspended in 350 μL of Resuspension Buffer (PerFix-P® kit) and analyzed on a flow cytometer (GALLIOS™) using a protocol with defined population gates and series of dual parameter histograms. A CD45-KO vs. SS dual parameter histogram was collected and a gate around the leukocyte population based on the CD45+ fluorescence and SS characteristics was drawn to exclude debris (CD45 negative events). A minimum of 2,500 CD14+ events were collected. A stop count region was set from the CD14-PC7 vs. SS histogram gated on monocytes. Dual parameter histograms gated on the appropriate populations were created to measure the populations of interest. The collected flow cytometric data was analyzed using KALUZA™ software.\n(§10) Phosphorylation of signaling pathways activated by TNF-α, including ERK, Akt, and the ribosomal S6 protein, was monitored together with the degradation of IκB in peripheral blood WBCs. Whole blood samples were treated, activated, and processed as described in Example 1 and the degradation of IκB in peripheral blood cells was monitored by flow cytometry as described in Example 1. The IκB degradation agonist used in this example was TNF-α. […]"}, "[8]": {"tested_on": "monocytes of MM patients", "assay": "LPS stimulation of monocytes in whole blood of Multiple Myeloma patients", "type": "cell-based, human", "conditions": "10 min LPS", "description": "as §5, §6"}, "[9]": {"tested_on": "peripheral blood monocytes", "assay": "IκB degradation agonists in whole blood: IκB degradation and signaling pathway activation in monocytes", "type": "cell-based, human", "conditions": "for Pathways Activated: Target Cell Population: Monocytes", "description": "as §7, §8, §9, §10"}, "[10]": {"tested_on": "granulocytes", "assay": "IκB degradation agonists in whole blood: IκB degradation and signaling pathway activation in granulocytes", "type": "cell-based, human", "description": "as §7, §8\nFollowing the above wash steps, the fixed and permeabilized cells were resuspended in 100 μL of cold Wash Buffer comprising antibodies to specific intracellular antigens (e.g., signaling targets including P-ERK, P-Akt, P-p38, P-SAPK, P-S6, and antibodies to IκB). The antibodies were labeled with different fluorochromes (e.g. fluorophores) to facilitate their-individual measurement of the intracellular antigens. […] The supernatant was aspirated and the cell pellet was resuspended in 350 μL of Resuspension Buffer (PerFix-P® kit) and analyzed on a flow cytometer (GALLIOS™) using a protocol with defined population gates and series of dual parameter histograms. A CD45-KO vs. SS dual parameter histogram was collected and a gate around the leukocyte population based on the CD45+ fluorescence and SS characteristics was drawn to exclude debris (CD45 negative events). […] The collected flow cytometric data was analyzed using KALUZA™ software."}, "[11]": {"conditions": "three MM patients (MM003-MM005), 10 min LPS at 37° C."}}}
{"compound": "CC(C)C[C@H](NC(=O)[C@H](Cc1ccccc1)NC(=O)c1cnccn1)B(O)O", "note": "[Bortezomib]", "values": [{"measurement": "degradation of IκB in granulocytes", "setting": "[1]", "value": "No significant degradation"}, {"measurement": "LPS induced degradation of IκB in lymphocytes", "setting": "[2]", "value": "inhibition of LPS induced degradation of IκB"}, {"measurement": "degradation of IκB", "setting": "[3]", "value": "completely inhibited"}, {"measurement": "activation of ERK", "setting": "[4]", "value": "completely inhibited"}, {"measurement": "loss in measured IκB", "setting": "[5]", "value": "~10", "unit": "%"}, {"measurement": "proteasome inhibition", "setting": "[6]; all MM patients tested, blood draw a week after the treatment", "value": "no proteasome inhibition was detected"}, {"measurement": "inhibition of ERK activation following LPS stimulation", "setting": "[6]; [11]", "value": "no inhibition"}, {"measurement": "inhibition of IκB degradation following LPS stimulation", "setting": "[6]; [11]", "value": "no inhibition"}]}
{"compound": "lipopolysaccharide [LPS]", "values": [{"measurement": "Pathways Activated", "setting": "[7]; pathway: ERK MAP kinase (Tpl-2)", "value": "ERK MAP kinase (Tpl-2)"}, {"measurement": "Pathways Activated", "setting": "[7]; pathway: IκB > NFκB", "value": "IκB > NFκB"}, {"measurement": "Pathways Activated", "setting": "[7]; pathway: PI3 kinase > Akt", "value": "PI3 kinase > Akt"}, {"measurement": "degradation of IκB in lymphocytes at 10 min", "setting": "[7]; agonist alone, 10 min", "value": "no significant degradation"}, {"measurement": "loss of IκB", "setting": "[8]; six MM samples", "value": "60-70%"}, {"measurement": "percent decrease of IκB MFI", "setting": "[8]; two MM samples", "value": 48, "unit": "%"}, {"measurement": "Pathways Activated", "setting": "[9]; pathway: IκB > NFκB", "value": "IκB > NFκB"}, {"measurement": "Pathways Activated", "setting": "[9]; pathway: P-p 38 MAP kinase", "value": "P-p 38 MAP kinase"}, {"measurement": "Pathways Activated", "setting": "[9]; pathway: PI3 kinase > Akt", "value": "PI3 kinase > Akt"}, {"measurement": "Pathways Activated", "setting": "[9]; pathway: SAP/JNK MAP kinase", "value": "SAP/JNK MAP kinase"}, {"measurement": "Pathways Activated", "setting": "[9]; pathway: Tpl-2 > ERK/MAP kinase", "value": "Tpl-2 > ERK/MAP kinase"}, {"measurement": "loss in measured IκB", "setting": "[9]; agonist alone, normal donors, monocytes, within 10 minutes of treatment", "value": "60-70%"}, {"measurement": "Pathways Activated", "setting": "[10]; Target Cell Population: Granulocytes", "value": "P-p38 MAP kinase"}, {"measurement": "degradation of IκB in granulocytes", "setting": "[10]; agonist alone", "value": "No significant degradation"}]}
